According to US20230391841A1, “MACROCYCLIC PEPTIDES” (Herantis Pharma OYJ, priority 2019, published 2023):
Bridge positions count the residues as written; N and C are the ends. Peptide text beside a SMILES is read from it.

Columns and labels:
[1] = tested on: human hepatocytes; test: In vitro metabolic stability in human hepatocytes; format: in vitro ADME; conditions: 1 μM, 37° C., up to 60 min
Method: The linear or macrocyclic compounds 1-8, 11-14 and 23-26 (SEQ ID NOs: 1-8, 11-14 and 23-26) were incubated in concentration 1 μM with pooled cryopreserved human hepatocytes (mixed gender; 400 pl, 1.0 million viable cells/ml) for different time points (0, 20, 40 or 60 min) at 37° C. The cell density and viability were determined by trypan blue is exclusion method. The incubation was terminated by acetonitrile. The collected samples were centrifuged for 20 min at 2272×g and analyzed. The samples were analyzed by UPLC/PDA with high resolution mass spectrometry (QE-Orbitrap-MS on DDI mode) to monitor disappearance of the compound. Verapramil 1 μM was used as a disappearance rate control. The analytical method was optimized by using the parent compounds for optimum chromatographic properties (peak shape and retention) and mass spectrometric ionization. The Ion chromatograms were extracted from the total ion chromatograms using calculated monoisotopic accurate masses with 5 mDa window. Disappearance was based on LC/MS peak areas, marking 0 min as 100%. The first-order rate constants k (min-1) of the metabolism were obtained from the slope of time versus logarithm (% of remaining compound) plot using Excel software. The in vitro half-life (t1/2) of study compound is defined as: t1/2In2/k. Calculated half-life is based on compound disappearance in human liver hepatocytes.

[2] = tested on: 3D in vitro model of blood-brain barrier; test: Permeation in a 3D in vitro model of blood-brain barrier; format: in vitro ADME, human endothelial cells, rat astrocytes and cortical neurons; conditions: 500 nM, 2 h
Method: Due to the interest of developing CDNF- and MANF-derived peptides for treatment of CNS diseases with peripheral route of administration, and the fact that macrocyclization can improve cell-penetration and distribution properties of peptides, the ability of the compounds to pass the blood-brain barrier was tested in an established in vitro model of the blood-brain barrier. For this purpose, macrocyclic and linear compounds were incubated at 500 nM for 2 h in a two-compartment in vitro blood-brain barrier model (n=4) followed by sample collection is and LC-MS/MS analysis.
Primary culture of astrocytes. Rat astrocytes were prepared from a E15 embryos. Briefly, pregnant female rats (Wistar, Janvier Labs) of 15 days of gestation were deeply anesthetized in a (CO2 chamber) and then killed by cervical dislocation. Fetuses were collected and immediately placed in ice-cold L15 Leibovitz medium with a 2% penicillin (10,000 U/mL) and streptomycin (10 mg/mL) solution (PS) and 1% bovine serum albumin (BSA). Full brains were treated for 20 min at 37° C. with a trypsin- EDTA solution at a final concentration of 0.05% trypsin and 0.02% EDTA. Dissociated cells were cultured in DMEM 10% fetal calf serum. Purified astrocytes were used at passage 4 (P4).
Culture of human endothelial cells. A vial of HBMEC (Primary Human Brain Microvascular Endothelial Cells, ACBRI 376) was used at a specific passage 8 (P8).
Primary culture of cortical neurons. Rat cortical neurons were cultured as described by Callizot et al., 2013 with modification. Briefly, pregnant female rats (Wistar, Janvier Labs) of […] were deeply anesthetized in a CO2 chamber and then killed by cervical io dislocation. Fetuses were collected and immediately placed in ice-cold L15 Leibovitz medium with a 2% penicillin (10,000 U/mL) and streptomycin (10 mg/mL) solution (PS) and 1% bovine serum albumin (BSA). Cortices were treated for 20 min at 37° C. with a trypsin-EDTA solution at a final concentration of 0.05% trypsin and 0.02% EDTA. The dissociation was stopped by addition of Dulbecco's modified Eagle's medium (DMEM) with 4.5 g/L of glucose, containing is DNAse I grade II (final concentration 0.5 mg/m L) and 10% fetal calf serum (FCS). Cells were mechanically dissociated by three forced passages through the tip of a 10-m1 pipette. Cells were then centrifuged at 515×g for 10 min at 4° C. The pellet resuspended in a defined culture medium consisting of Neurobasal medium with a 2% solution of B27 supplement, 2 mmol/L of L-glutamine, 2% of PS solution, 10 ng/mL of brain-derived neurotrophic factor (BDNF). Viable cells were counted in a Neubauer cytometer, using the trypan blue exclusion test. The cortical neurons were seeded in the bottom of well pre-coated with poly-L-lysine at a density of 255,000 per well in 24-well plate with insert and cultured at 37° C. in an air (95%)-CO2 (5%) incubator. The culture medium was changed every other day.
Co-Culture of endothelial cells, astrocytes and primary cortical neurons. The procedure was performed as previously published (Xue et al., 2013 with modifications, Callizot et al., 2017). Briefly, on day 0, purified astrocytes (P4) were rapidly thawed in a water bath at 37° C. The cells were immediately put in DMEM containing 10% of FCS. Cell suspension was centrifuged at 515×g for 5 min at 4° C. and the pellets were suspended in DMEM F12 containing 10% of FCS. Cells were seeded in the outer side of the insert membrane (PET, 1 μm) at the density of 45,000 cells per insert and cultured at 37° C. in an air (95%)-CO2 (5%) incubator. Thirty-six (36) hours after the astrocytes seeding, HBMEC (P8) were rapidly thawed in a water bath at 37° C. and immediately put in DMEM containing 10% of FCS. Cell suspension was centrifuged at 515×g for 5 min at 4° C. and the pellets were suspended in EGM-2 bullet kit containing 5% of FCS, 1% of PS solution, 1.4 μM of Hydrocortisone, 5 μg/mL of acid ascorbic, 1% of lipid mixture, 10 mM of HEPES, 1 ng/mL of bFGF. […]

| SMILES | stability in human hepatocytes as compared to linear counterpart [1] | ability to pass through the in vitro blood-brain barrier as compared to linear counterpart [2] |
| --- | --- | --- |
| C[C@@H]1NC(=O)CNC(=O)[C@H](CCCNC(=N)N)NC(=O)[C@@H]2CSSC[C@H](NC1=O)C(=O)N[C@@H](C)C(=O)N[C@@H](CCC(=O)O)C(=O)N[C@@H](CCCCN)C(=O)N[C@@H]([C@@H](C)O)C(=O)N[C@@H](Cc1c[nH]c3ccccc13)C(=O)NCC(=O)N[C@@H](CCC(=O)O)C(=O)N[C@@H](CCC(=O)O)C(=O)N2 [Compound 24, WGEECRGACAEKT] (cyclo(ACAEKTWGEECRG); disulfide 2-11) | significantly improved stability | improved ability to pass |
| CC[C@H](C)[C@@H]1NC(=O)[C@H](CCC(N)=O)NC(=O)[C@H](CCCCN)NC(=O)[C@H](CC(C)C)NC(=O)[C@H](CCC(=O)O)NC(=O)[C@H](C)NC(=O)[C@H](C(C)C)NC(=O)[C@H](CCCNC(=N)N)NC(=O)[C@H](CCSC)NC(=O)[C@H](CCCCN)NC(=O)[C@H](CCCNC(=N)N)NC(=O)[C@H](CC(C)C)NC(=O)[C@H](CC(=O)O)NC(=O)[C@H](C(C)C)NC(=O)[C@H](CCC(=O)O)NC(=O)[C@H](C)NC(=O)[C@@H]2CSSC[C@H](NC(=O)[C@H](CCC(=O)O)NC(=O)[C@H](CCC(=O)O)NC(=O)CNC(=O)[C@H](Cc3c[nH]c4ccccc34)NC(=O)[C@H](CO)NC(=O)[C@H](Cc3c[nH]cn3)NC(=O)[C@H](CC(C)C)NC1=O)C(=O)N[C@@H](CCCNC(=N)N)C(=O)N[C@@H](C)C(=O)N2 [Compound 2] (cyclo(ACAEVDLRKMRVAELKQILHSWGEECR); disulfide 2-26) | significantly improved stability | improved ability to pass |
| CC[C@H](C)[C@@H]1NC(=O)[C@H](CCC(N)=O)NC(=O)[C@H](CCCCN)NC(=O)[C@H](CC(C)C)NC(=O)[C@H](CCC(=O)O)NC(=O)[C@H](C)NC(=O)[C@H](C(C)C)NC(=O)[C@H](CCCNC(=N)N)NC(=O)[C@H](CCSC)NC(=O)[C@H](CCCCN)NC(=O)[C@H](CCC(=O)O)NC(=O)[C@H](C)NC(=O)[C@@H]2CSSC[C@H](NC(=O)[C@H](CCC(=O)O)NC(=O)[C@H](CCC(=O)O)NC(=O)CNC(=O)[C@H](Cc3c[nH]c4ccccc34)NC(=O)[C@H](CO)NC(=O)[C@H](Cc3c[nH]cn3)NC(=O)[C@H](CC(C)C)NC1=O)C(=O)N[C@@H](CCCNC(=N)N)C(=O)N[C@@H](C)C(=O)N2 [Compound 6] (cyclo(ACAEKMRVAELKQILHSWGEECR); disulfide 2-22) | significantly improved stability | improved ability to pass |
| CC[C@H](C)[C@@H]1NC(=O)[C@H](CCCCN)NC(=O)[C@H](CCCCN)NC(=O)[C@H](CC(C)C)NC(=O)[C@H](CCC(=O)O)NC(=O)[C@H](CCCCN)NC(=O)[C@H](C(C)C)NC(=O)[C@H](CCCNC(=N)N)NC(=O)[C@H](CC(C)C)NC(=O)[C@H](CCCCN)NC(=O)[C@H](CCC(=O)O)NC(=O)[C@H](C)NC(=O)[C@@H]2CSSC[C@H](NC(=O)[C@H]([C@@H](C)O)NC(=O)[C@H](CCC(=O)O)NC(=O)CNC(=O)[C@H](Cc3c[nH]c4ccccc34)NC(=O)[C@H](CC(=O)O)NC(=O)[C@H](CC(=O)O)NC(=O)[C@H](CC(C)C)NC1=O)C(=O)N[C@@H](CCCCN)C(=O)NCC(=O)N2 [Compound 8] (cyclo(AEKLRVKELKKILDDWGETCKGC); disulfide 20-23) |  | improved ability to pass |
| C[C@@H]1NC(=O)[C@@H]2CSSC[C@H](NC(=O)[C@H]([C@@H](C)O)NC(=O)[C@H](CCC(=O)O)NC(=O)CNC(=O)[C@H](Cc3c[nH]c4ccccc34)NC(=O)[C@H](CO)NC(=O)[C@H](CCCCN)NC(=O)[C@H](CCC(=O)O)NC1=O)C(=O)N[C@@H](CCCCN)C(=O)NCC(=O)N2 [Compound 14, WGETCKGCAEKS] (cyclo(AEKSWGETCKGC); disulfide 9-12) | significantly improved stability | improved ability to pass |
| C[C@@H]1NC(=O)[C@@H]2CSSC[C@H](NC(=O)[C@H](CCC(=O)O)NC(=O)[C@H](CCC(=O)O)NC(=O)CNC(=O)[C@H](Cc3c[nH]c4ccccc34)NC(=O)[C@H]([C@@H](C)O)NC(=O)[C@H](CCCCN)NC(=O)[C@H](CCC(=O)O)NC1=O)C(=O)N[C@@H](CCCNC(=N)N)C(=O)N[C@@H](C)C(=O)N2 [Compound 12, WGEECRACAEKT] (cyclo(ACAEKTWGEECR); disulfide 2-11) | significantly improved stability | improved ability to pass |
| C[C@@H]1NC(=O)[C@@H]2CSSC[C@H](NC(=O)[C@H]([C@@H](C)O)NC(=O)[C@H](CCC(=O)O)NC(=O)CNC(=O)[C@H](Cc3c[nH]c4ccccc34)NC(=O)[C@H](CO)NC(=O)[C@H](CCCCN)NC(=O)[C@H](CCC(=O)O)NC1=O)C(=O)N[C@@H](CCCCN)C(=O)NCC(=O)NCC(=O)N2 [Compound 26, WGETCKGGCAEKS] (cyclo(AEKSWGETCKGGC); disulfide 9-13) | significantly improved stability | improved ability to pass |
